Data from patent US4801588A, “Tetracyclic indole derivatives for treating hypertension” (Farmitalia Carlo Erba S.p.A., priority 1986, dated 1989).

Experiments:
mean blood pressure = assay: Antihypertensive activity: mean blood pressure (MBP) after oral administration in SHR rats, intraarterial measurement; format: in vivo, rat (SHR); details: single dose, limits P = 0.05, calculated from dose-response regression line; for ED25 and limits (dose lowering mean blood pressure of 25 mmHg): p.o.
Procedure: Intrarterial measurements of mean blood pressure (MBP) were performed through catheters (PE 50, Clay Adams) implanted in the rat (SHR) right carotid artery under alothane anesthesia. Twenty four hours after surgery, the animals were placed in Ballman cages and the arterial cannula was connected via a pressure transducer to a Beckman blood pressure recorder for continuous monitoring of mean blood pressure.
MBP was recorded before the oral administration (basal values) and 15-30-60-120-240 minutes till 24 hours after treatment. Groups of 7-8 rats were orally treated with a single dose of the test compound or vehicle, methocel 0.5% w/v (0.2 ml/100 g b.w.). The ED25 was calculated for each compound from the dose-response regression line.
As reference standard drug, captopril was also tested.

[1] = Orientative toxicity after oral treatment in male mice, seven days observation; format: in vivo; details: mouse, in vivo, po, observed for seven days
Source text: (§1) Three male mice for each group were orally treated with drugs at different dose levels for the determination of orientative toxicity.

male mice = assay: as above; format: in vivo; details: p.o., observed for seven days, 10080 min
Source text: as §1

Row | Compound | ED (25 mmHg) (mean blood pressure; Rattus norvegicus, po, read-out: ED25 and limits (dose lowering mean blood pressure of 25 mmHg)) [mg/kg] | LD50 at 168 h [1] [mg/kg] | ED25 and limits (dose lowering mean blood pressure of 25 mmHg) (mean blood pressure) | LD50 (male mice) [mg/kg]
1 | C[C@H](CS)C(=O)N1CCC[C@H]1C(=O)O [Captopril, captopril, reference compound] | 13.7 | > 800 | – | –
2 | CN1C[C@H](CN2CC(=O)NC2=O)C2=Cc3cccc4[nH]cc(c34)C[C@H]21 [FCE 24378, 1-[[5(10→9)abeo-9,10-didehydro-6-methylergolin-8β-yl]methyl]-2,4-imidazolidinedione] | – | – | 2.051 (1.180-2.971) mg.kg^-1 | > 800
3 | 1-[[5-(10→9)abeo-9,10-didehydro-6-methylergolin-8β-yl]methyl]- 2,4-(1H,3H)-pyrimidinedione [FCE 24379] | – | – | 1.229 (0.661-1.845) mg.kg^-1 | > 800
4 | 1-[[5-(10→9)abeo-9,10-didehydro-6-methylergolin-8β-yl]methyl]- 2,4-(1H,3H)-pyrimidinedione-N6 -oxide [FCE 24778] | – | – | 0.402 (0.297-0.511) mg.kg^-1 | > 800
5 | C[N+]1([O-])C[C@H](CN2CC(=O)NC2=O)C2=Cc3cccc4[nH]cc(c34)C[C@H]21 (stereo partly drawn) [FCE 25068, 1-[[5(10→9)abeo-9,10-didehydro-6-methylergolin-8β-yl]methyl]-2,4-imidazolidinedione-N6-oxide] | – | – | 4.272 (3.256-5.514) mg.kg^-1 | > 800
